Measured values published in US8076486B2, “Heteroaryl-substituted arylaminopyridine derivatives as MEK inhibitors” (Merck Serono S.A., priority 2006, dated 2011).

Columns and labels:
[1] = test system: human melanoma A375 cells; experiment: Tumor Cell Proliferation Assay (ATP Lite), A375; type: cell-based; details: A-375, 96 h, 4 days, ATPlite
Procedure: (§1) Assay 2: Tumor Cell Proliferation Assays (ATP Lite)
(§2) Murine colon C26 (1500 cells/well), human melanoma A375 (2000 cells/well), or human pancreatic MiaPaCa-2 cells (2000 cells/well) were plated in white, 96 well plates (Corning) in growth media (DMEM with 10% fetal bovine serum, 2 mM glutamine for C26 and MiaPaCa-2, and RPMI with 10% fetal bovine serum, 2 mM glutamine for A375) and cultured overnight at 37° C. in a humidified, 5% CO2 incubator. Inhibitors were serially diluted in 100% DMSO and subsequently added to the cells, in growth media, to reach a final concentration of 0.25% DMSO. The cells were incubated for 4 days in the presence of the test compounds and the proliferation was quantitated using the ATPlite cell proliferation kit (Packard).

[2] = molecular target: human MEK1 (Homo sapiens, UniProt Q02750, S218E/S222E); experiment: MEK-1 Enzyme Assay (LANCE-HTRF); type: biochemical; details: MEK-1 EE, ERK-2K52A substrate, 9 uM ATP, 1.5 hrs
human MEK1, sequence (Q02750 whole entry S218E/S222E): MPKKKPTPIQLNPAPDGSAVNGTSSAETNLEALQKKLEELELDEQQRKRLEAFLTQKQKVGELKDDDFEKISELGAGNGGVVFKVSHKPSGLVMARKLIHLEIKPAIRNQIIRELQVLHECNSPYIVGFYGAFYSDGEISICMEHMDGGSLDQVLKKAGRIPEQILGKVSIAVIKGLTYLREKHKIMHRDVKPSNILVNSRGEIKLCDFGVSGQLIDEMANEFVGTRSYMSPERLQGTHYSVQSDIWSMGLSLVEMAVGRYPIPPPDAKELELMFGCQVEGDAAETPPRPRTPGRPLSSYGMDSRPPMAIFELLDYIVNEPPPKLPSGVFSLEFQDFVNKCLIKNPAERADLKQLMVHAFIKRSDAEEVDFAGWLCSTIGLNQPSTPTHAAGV
Procedure: Assay 1: MEK-1 Enzyme Assay (LANCE-HTRF)
Inhibition of human MEK1 kinase activity was monitored with a homogenous, fluorescence-based assay. The assay uses time resolved fluorescence resonance energy transfer to probe for phosphorylation of ERK1 by MEK1. The detailed procedure is described in the following:
Constititutively active MEK-1 EE (150 ng/well) and ERK-2K52A (110 ng/well) were incubated in black, 384 well Optiplates (Perkin Elmer) for 1.5 hrs at room temperature, in the presence of increasing concentrations of inhibitors. The total reaction volume was 50 ul. The inhibitors were serial diluted in kinase buffer (9 uM ATP, 50 mM Tris-Hcl pH 8.0, 10 mM MgCl2, 1 mM DTT and 100 uM Na3VO4), to a final concentration of 1% DMSO. At the end of the incubation, the enzyme reaction was quenched by adding 50 ul of assay buffer containing 50 mM Tris-Hcl, 50 mM EDTA, 0.1% BSA and a mixture of 1.25 ug/mL europium labeled anti-phosphotyrosine mAb (Perkin Elmer) and 5 ug/mL of allophycocyanin labeled anti-GST antibody (CIS-US). Plates were agitated on a plate shaker for 30 minutes and the phosphorylation of the ERK-2K52A substrate was measured by homogeneous time resolved fluorescence (HTRF) at 340 nm excitation and […] emission filters on the VICTOR V fluorescence plate reader. Phosphorylation is expressed as a ratio of 665 nM signal×10,000/615 nM signal. To assess the inhibitory potential of the compounds, IC50-values were determined.

[3] = test system: Murine colon C26 cells; experiment: Tumor Cell Proliferation Assay (ATP Lite), C26; type: cell-based; details: Mus musculus, 96 h, 4 days, ATPlite
Procedure: as §1, §2

[4] = test system: human pancreatic MiaPaCa-2 cells; experiment: Tumor Cell Proliferation Assay (ATP Lite), MiaPaCa-2; type: cell-based; details: MIA PaCa-2, 96 h, 4 days, ATPlite, read-out: MiaPaCa2 cell proliferation IC50
Procedure: as §1, §2

[5] = test system: A375 Xenograft; experiment: Tumor Growth Inhibition in A375 Xenograft Studies (Malignant Melanoma Model); type: in vivo, nude (nu/nu) mice; details: A375 xenograft in male nude mice, to Day 14
Procedure: In vivo Efficacy Evaluation: Tumor Growth Inhibition in A375 Xenograft Studies (Malignant Melanoma Model)
Male nude (nu/nu) mice (100 total, 24-26 g body wt) were purchased from Charles River Laboratories. Animals were injected subcutaneously above the right foreleg with 5×10^6 A375 cells in 100 ul of PBS. Tumors were measured with calipers 4, 7, 11 and 14 days after cells were implanted. Tumor length (l) and width (w) were measured and tumor volume was calculated with the equation l*w^2/2. At 16 days after cancer cells were implanted, tumors had reached an average volume of 93 mm^3, at which time the animals were sorted into 6 groups so that each group had the same mean tumor volume. The vehicle used for dosing the compound in suspension was 10% Tween 80 in water.
Treatments began on the afternoon of the 16th day after cancer cell injections, which was designated as Day 0. Tumor volume and body weight was measured for each animal 3 times per week until Day 14. On Day 14, all animals were euthanized, tumors removed and weighted.

| SMILES | IC50 [1] [nM] | IC50 [2] [nM] | IC50 [3] [nM] | IC50 [4] [nM] | effect on tumor growth ([5]; dose of 0.5 mg/kg) | effect on tumor growth ([5]; dose of 10 mg/kg) |
| --- | --- | --- | --- | --- | --- | --- |
| Nc1nnc(-c2ccncc2Nc2ccc(I)cc2F)o1 [Example 2, [4-(5-Amino-[1,3,4]oxadiazol-2-yl)-pyridin-3-yl]-(2-fluoro-4-iodo-phenyl)-amine] | ≤ 3000 | ≤ 3000 | ≤ 3000 | ≤ 3000 | significant tumor growth inhibition | tumor regression |
| Nc1nnc(-c2ccncc2Nc2ccc(Br)cc2Br)o1 [Example 14, [4-(5-Amino-[1,3,4]oxadiazol-2-yl)-pyridin-3-yl]-(2,4-dibromo-phenyl)-amine] | ≤ 3000 | ≤ 3000 | ≤ 3000 | ≤ 3000 | – | – |
| Fc1cc(I)ccc1Nc1cnccc1-c1nnc(NCCN2CCCC2)o1 [Example 23, (2-Fluoro-4-iodo-phenyl)-{4-[5-(2-pyrrolidin-1-yl-ethylamino)-[1,3,4]oxadiazol-2-yl]-pyridin-3-yl}-amine] | ≤ 3000 | ≤ 3000 | ≤ 3000 | ≤ 3000 | – | – |
| CCOC(=O)C(=O)Nc1nnc(-c2ccncc2Nc2ccc(I)cc2F)o1 [Example 15, N-{5-[3-(2-Fluoro-4-iodo-phenylamino)-pyridin-4-yl]-[1,3,4]oxadiazol-2-yl}-oxalamic acid ethyl ester] | ≤ 3000 | ≤ 3000 | ≤ 3000 | ≤ 3000 | – | – |
| OCCNc1nnc(-c2ccncc2Nc2ccc(I)cc2F)o1 [Example 44, 2-{5-[3-(2-Fluoro-4-iodo-phenylamino)-pyridin-4-yl]-[1,3,4]oxadiazol-2-ylamino}-ethanol] | ≤ 3000 | ≤ 3000 | ≤ 3000 | ≤ 3000 | – | – |
| Nc1nnc(-c2c(Nc3ccc(I)cc3F)cncc2-c2ccccc2F)o1 [Example 58, [4-(5-Amino-[1,3,4]oxadiazol-2-yl)-5-(2-fluoro-phenyl)-pyridin-3-yl]-(2-fluoro-4-iodo-phenyl)-amine] | ≤ 3000 | ≤ 3000 | ≤ 3000 | ≤ 3000 | – | – |
| Fc1cc(I)ccc1Nc1cnccc1-c1ncon1 [Example 56, (2-Fluoro-4-iodo-phenyl)-(4-[1,2,4]oxadiazol-3-yl-pyridin-3-yl)-amine] | 3000 to 25000 | ≤ 3000 | > 25000 | 3000 to 25000 | – | – |
| Fc1cc(I)ccc1Nc1cnccc1-c1ncno1 [Example 37, (2-Fluoro-4-iodo-phenyl)-(4-[1,2,4]oxadiazol-5-yl-pyridin-3-yl)-amine] | ≤ 3000 | ≤ 3000 | ≤ 3000 | ≤ 3000 | – | – |
| CNc1nnc(-c2ccncc2Nc2ccc(I)cc2F)o1 [Example 16, (2-Fluoro-4-iodo-phenyl)-[4-(5-methylamino-[1,3,4]oxadiazol-2-yl)-pyridin-3-yl]-amine] | ≤ 3000 | ≤ 3000 | ≤ 3000 | ≤ 3000 | – | – |
| OCc1noc(-c2ccncc2Nc2ccc(I)cc2F)n1 [Example 38, {5-[3-(2-Fluoro-4-iodo-phenylamino)-pyridin-4-yl]-[1,2,4]oxadiazol-3-yl}-methanol] | ≤ 3000 | ≤ 3000 | ≤ 3000 | 3000 to 25000 | – | – |
